For one data set, the system named is E. coli ATCC25992. Put plainly: Broth microdilution MIC (NCCLS). The class given is cell-based. Conditions: Escherichia coli. Here is the method:
(§1) Compounds were evaluated for antimicrobial activity against a panel of bacterial strains using a broth microdilution assay performed as recommended by the NCCLS (1). The minimum inhibitory concentration (MIC) was defined as the lowest concentration of drug which prevented the growth of the bacteria.
(§2) For this primary panel, the assay was performed in Mueller-Hinton Broth (MHB) with a final bacterial inoculum of 5×10^5 CFU/mL (from an early-log phase culture) and a final volume of 100 μL. Control drugs, including imipenem, vancomycin, Penicillin G, dicloxacillin (vs. MSSA ATCC29213 only), and new compounds were prepared at a concentration equivalent to 2-fold the desired final concentration. Dilution of compounds were prepared directly in the plates by serial 2-fold dilution using a multichannel pipette. Positive and negative growth control were included in each plate.
(§3) The bacterial inocula were prepared as follows. For each strain one isolated colony was used to inoculate a volume of 8 mL of Mueller-Hinton broth and these cultures were incubated overnight (20 h) at 35° C. in a shaking incubator. At the exception of Enterococcus strains, culture were then diluted 1:10 and allowed to grow for an additional one hour at 35° C. in a shaking incubator. The inocula were prepared by diluting the early log-phase (1 h) cultures 1:1000 with fresh Mueller-Hinton broth. E. faecium and E. faecalis were prepared by diluting overnight cultures 1:333 and 1:666, respectively, with fresh Mueller-Hinton broth. A volume of 50 μL of the inocula was added to each well. […] The exact inocula were determined by applying 10 μL of 10-fold serial dilution of the bacterial suspensions on TSA. After overnight incubation at 35° C., colony forming units were manually counted.
(§4) Microtiter plates were incubated during 24 h at 35° C. and were read using a microtiterplate reader (Molecular Devices) at 650 nm as well as by visual observation using a microtiterplate reading mirror.

The test system of another data set is E. faecalis ATCC 29212. Nature of the data set: Broth microdilution MIC (NCCLS). The class given is cell-based. Conditions: Enterococcus faecalis, ATCC29212. How it is done: as §1, §2, §3, §4
The test system of the next data set is E. faecalis VanB (Van^R). Put plainly: Broth microdilution MIC (NCCLS). The class given is cell-based. Conditions: Enterococcus faecalis. How it is done:
as §1, §2, §3, §4

Another data set deals with E. faecium A491 (Amp^R). Put plainly: Broth microdilution MIC (NCCLS). Conditions: Enterococcus faecium. It counts as cell-based. Here is the method: as §1, §2, §3, §4
On the technique in general: Broth dilution looks for growth in wells or tubes with falling amounts of substance.

The next data set deals with E. faecium ATCC 35667. Nature of the data set: Broth microdilution MIC (NCCLS). The class given is cell-based. The conditions noted are these: Enterococcus faecium, ATCC35667. Here is the method:
as §1, §2, §3, §4

Another data set concerns E. faecium VanA (Van^R). Nature of the data set: Broth microdilution MIC (NCCLS). It counts as cell-based. Conditions: Enterococcus faecium. Here is the method: as §1, §2, §3, §4
A further data set deals with P. aeruginosa ATCC 27853. Nature of the data set: Broth microdilution MIC (NCCLS). The class given is cell-based. The conditions noted are these: Pseudomonas aeruginosa, ATCC27853. Here is the method:
as §1, §2, §3, §4

For data set [1], the system named is S. aureus 76 (Meth^R)(lac^+). Nature of the data set: Broth microdilution MIC (NCCLS). It counts as cell-based. The conditions noted are these: Staphylococcus aureus. How it is done: as §1, §2, §3, §4
For data set [2], the system named is S. aureus ATCC 13709 (Meth^S). Nature of the data set: Broth microdilution MIC (NCCLS). The class given is cell-based. Conditions: Staphylococcus aureus, ATCC13709, S. aureus ATCC 13709 (Meth^S); read-out: MIC. Here is the method: as §1, §2, §3, §4
In a further data set the test system is S. aureus ATCC 29213. Put plainly: Broth microdilution MIC (NCCLS). It counts as cell-based. Conditions: Staphylococcus aureus, ATCC29213; S. aureus ATCC 29213; Mueller-Hinton broth, 24 h at 35° C.; read-out: MIC. Here is the method:
as §1, §2, §3, §4

Data set [3] relates to S. aureus ATCC 33593 (Meth^R). Nature of the data set: Broth microdilution MIC (NCCLS). Conditions: Staphylococcus aureus, ATCC33593. It counts as cell-based. Here is the method:
as §1, §2, §3, §4

Data set [4] has as its system S. aureus Col (Meth^R)(lac^−). Nature of the data set: Broth microdilution MIC (NCCLS). The class given is cell-based. Conditions: Staphylococcus aureus. Here is the method:
as §1, §2, §3, §4

Data set [5] concerns S. aureus Col8A (Meth^S)(lac^−). Put plainly: Broth microdilution MIC (NCCLS). The class given is cell-based. The conditions noted are these: Staphylococcus aureus. How it is done: as §1, §2, §3, §4
Data set [6] deals with S. aureus PC1 (Meth^S)(lac^+). Put plainly: Broth microdilution MIC (NCCLS). The class given is cell-based. The conditions noted are these: Staphylococcus aureus. Here is the method: as §1, §2, §3, §4
The test system of data set [7] is S. aureus Spain #356 (Meth^R). Nature of the data set: Broth microdilution MIC (NCCLS). It counts as cell-based. Conditions: Staphylococcus aureus, 24 h. How it is done:
as §1, §2, §3, §4

The test system of data set [8] is S. haemolyticus 05 (Meth^R). Put plainly: Broth microdilution MIC (NCCLS). The class given is cell-based. The conditions noted are these: Staphylococcus haemolyticus. Here is the method:
as §1, §2, §3, §4

For a further data set, the system named is S. aureus ATCC29213. Nature of the data set: Human serum binding effect: MIC with and without human serum. The class given is cell-based, Staphylococcus aureus. Conditions: 1:1 human serum:MHB. The method in brief: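 Serum binding was estimated as the ratio of S. aureus ATCC29213 MIC in 1:1 human serum:Mueller-Hinton broth to MIC without serum. Compounds were serially 2-fold diluted, and wells received an early-log-phase inoculum at 1×10^6 CFU/mL final. Inoculum size was checked by colony counts on TSA after overnight incubation at 35 °C.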

Values after ≈ are worked out from the molar mass of the structure shown.

Broadly, the MIC is the lowest concentration that inhibits growth of the organism.

Turning to `NCCSCc1nnc(SC2=C(C(=O)O)N3C(=O)[C@@H](NC(=O)/C(=N\O)c4nc(N)sc4Cl)[C@H]3SC2)s1` [Cmpd 10, (7R)-7-[(Z)-2-(2-amino-5-chlorothiazol-4-yl)-2-(hydroxyimino)acetamido]-3-(2-aminoethylthiomethyl-1,3,4-thiadiazol-5-ylthio)-3-cephem-4-carboxylic acid], the MIC against E. coli ATCC25992 stood at 1 µg/mL (≈ 1.64 µM); in the data set on E. faecalis ATCC 29212, 0.13 µg/mL (≈ 0.213 µM); against E. faecalis VanB (Van^R) it was 0.25 µg/mL (≈ 0.41 µM); against E. faecium A491 (Amp^R) it was 8 µg/mL (≈ 13.1 µM); against E. faecium ATCC 35667, 1 µg/mL (≈ 1.64 µM); against E. faecium VanA (Van^R), 2 µg/mL (≈ 3.28 µM). For the same compound, the MIC against P. aeruginosa ATCC 27853 was found to be 16 µg/mL (≈ 26.3 µM); in data set [1], 2 µg/mL (≈ 3.28 µM); in [2], 0.13 µg/mL (≈ 0.213 µM); with S. aureus ATCC 29213, 0.5 µg/mL (≈ 0.821 µM); in data set [3], 2 µg/mL (≈ 3.28 µM); in data set [4] it was 2 µg/mL (≈ 3.28 µM). Besides, the MIC came to 0.25 µg/mL (≈ 0.41 µM) in [5], 0.5 µg/mL (≈ 0.821 µM) in data set [6], 4 µg/mL (≈ 6.57 µM) in [7] and 4 µg/mL (≈ 6.57 µM) in data set [8]. For the same compound, the “Human serum binding effect (ratio of MIC value determined with and without human serum added)” value in the data set on S. aureus ATCC29213 was 1.
Consider `NCCSCc1nsc(SC2=C(C(=O)O)N3C(=O)[C@@H](NC(=O)/C(=N\O)c4nc(N)sc4Cl)[C@H]3SC2)n1` [Cmpd 12, (7R)-7-[(Z)-2-(2-amino-5-chlorothiazol-4-yl)-2-(hydroxyimino)acetamido]-3-[3-(2-aminoethylthiomethyl)-1,2,4-thiadiazol-5-ylthio]-3-cephem-4-carboxylic acid], for which the minimum inhibitory concentration (MIC) is 4 µg/mL (≈ 6.57 µM) in the data set on E. coli ATCC25992; 0.13 µg/mL (≈ 0.213 µM) against E. faecalis VanB (Van^R); 4 µg/mL (≈ 6.57 µM) in the data set with E. faecium A491 (Amp^R); 0.5 µg/mL (≈ 0.821 µM) against E. faecium ATCC 35667; 1 µg/mL (≈ 1.64 µM) against E. faecium VanA (Van^R); more than 32 µg/mL against P. aeruginosa ATCC 27853. Besides, the MIC is 1 µg/mL (≈ 1.64 µM) in [1]; 0.25 µg/mL (≈ 0.41 µM) in data set [2]; 0.5 µg/mL (≈ 0.821 µM) in the data set with S. aureus ATCC 29213; 1 µg/mL (≈ 1.64 µM) in data set [3]; 1 µg/mL (≈ 1.64 µM) in [4]; 0.5 µg/mL (≈ 0.821 µM) in [5]. Also, the MIC in data set [6] came to 0.13 µg/mL (≈ 0.213 µM); in data set [7], 1 µg/mL (≈ 1.64 µM); in [8], 2 µg/mL (≈ 3.28 µM). Besides, the “Human serum binding effect (ratio of MIC value determined with and without human serum added)” value in the data set with S. aureus ATCC29213 is on record as 256.
Regarding `NCCNc1nc(CSCCN)c(SC2=C(C(=O)O)N3C(=O)[C@@H](NC(=O)/C(=N\O)c4nc(N)sc4Cl)[C@H]3SC2)s1` [Cmpd 16, (7R)-7-[(Z)-2-(2-amino-5-chlorothiazol-4-yl)-2-(hydroxyimino)acetamido]-3-[4-(2-aminoethylthiomethyl)-2-aminoethylamino-1,3-thiazol-5-ylthio]-3-cephem-4-carboxylic acid], the MIC with E. coli ATCC25992 was determined as 4 µg/mL (≈ 6 µM); in the data set with E. faecalis ATCC 29212, 0.06 µg/mL (≈ 0.0901 µM); in the data set with E. faecalis VanB (Van^R), 0.06 µg/mL (≈ 0.0901 µM); against E. faecium A491 (Amp^R), 16 µg/mL (≈ 24 µM); against E. faecium ATCC 35667, 0.5 µg/mL (≈ 0.75 µM); in the data set on E. faecium VanA (Van^R) it was 4 µg/mL (≈ 6 µM). Further, the MIC in the data set with P. aeruginosa ATCC 27853 stood at 1 µg/mL (≈ 1.5 µM); in [1] it was 1 µg/mL (≈ 1.5 µM); in data set [2], 0.13 µg/mL (≈ 0.195 µM); with S. aureus ATCC 29213 it was 0.13 µg/mL (≈ 0.195 µM); in data set [3], 1 µg/mL (≈ 1.5 µM); in data set [4], 1 µg/mL (≈ 1.5 µM). For the same compound, the MIC in data set [5] turned out to be 0.25 µg/mL (≈ 0.375 µM); in [6] it was 0.13 µg/mL (≈ 0.195 µM); in [7], 1 µg/mL (≈ 1.5 µM); in data set [8], 1 µg/mL (≈ 1.5 µM). Moreover, in the data set on S. aureus ATCC29213, the “Human serum binding effect (ratio of MIC value determined with and without human serum added)” value came out at 1.
Take `NCCSCc1ccncc1SC1=C(C(=O)O)N2C(=O)[C@@H](NC(=O)/C(=N\O)c3cccc(N)n3)[C@H]2SC1` [Cmpd 28, (7R)-7-[(Z)-2-(2-aminopyrid-6-yl)-2-(hydroxyimino)acetamido]-3-[4-(2-aminoethylthiomethyl)pyrid-3-ylthio]-3-cephem-4-carboxylic acid]: the MIC with E. coli ATCC25992 is 32 µg/mL (≈ 57 µM); in the data set with E. faecalis ATCC 29212 it was 0.5 µg/mL (≈ 0.89 µM); against E. faecalis VanB (Van^R), 2 µg/mL (≈ 3.56 µM); against E. faecium A491 (Amp^R), more than 32 µg/mL; against E. faecium ATCC 35667, 4 µg/mL (≈ 7.12 µM); with E. faecium VanA (Van^R), 8 µg/mL (≈ 14.2 µM). Further, the MIC in the data set with P. aeruginosa ATCC 27853 was more than 32 µg/mL; in data set [1], 8 µg/mL (≈ 14.2 µM); in [2] it was 0.13 µg/mL (≈ 0.231 µM); with S. aureus ATCC 29213, 0.5 µg/mL (≈ 0.89 µM); in data set [3], 8 µg/mL (≈ 14.2 µM); in data set [4], 8 µg/mL (≈ 14.2 µM). Besides, the MIC in data set [5] came out at 0.25 µg/mL (≈ 0.445 µM); in data set [6], 0.5 µg/mL (≈ 0.89 µM); in data set [7] it was 8 µg/mL (≈ 14.2 µM); in data set [8], 16 µg/mL (≈ 28.5 µM).

(Values after US6723716B1, “7-acylamino-3-heteroarylthio-3-cephem carboxylic acid antibiotics and prodrugs thereof” (Essential Therapeutics, Inc., priority 1999, dated 2004).)
